Consider 12 compounds from PMC9398717, “Comparison of Pharmacokinetic Profiles of 14 Major Bioactive Components in Normal and Arthritic Model Rats after Oral Administration of Angelicae pubescentis Radix by UPLC-MS/MS” (Evidence-based Complementary and Alternative Medicine : eCAM, 2022).

The data set can be described thus: Pharmacokinetic study in normal and arthritic model rats after oral administration of APR extract (UPLC-MS/MS of plasma). Particulars: for Cmax / MRT last / half-life / Tmax: Sprague-Dawley, rat, po, 4.1 mL/kg; for Cmax: C max; for MRT last: MRT0-t; for Tmax: t max. The method, then: One hundred grams of the APR sample was extracted by reflux with 800 mL 50% ethanol/water (v/v) for 3 times (2 hours each time), then combined with the filtrate and concentrated under vacuum with heat, and the concentration of APR extract was 0.37 g/mL. All the sample solutions were stored at 4°C before analysis.
Twelve SD rats were randomly divided into two groups (n = 6) and named as the model group and the normal group, respectively. The arthritic model was established by injecting 0.1 mL of complete Freund's adjuvant in rats. As a control, 0.1 mL of saline was injected. After 7 days, the plasma levels of MDA and TNF-α in normal and model rats were measured by an enzyme-linked immunosorbent assay kit to determine whether the modeling was successful.
The ultrahigh performance liquid chromatography (Thermo Scientific™, Vanquish™, (Waltham, MA, USA)) was used for the chromatographic analysis. UPLC separation was achieved on a Thermo Hypersil GOLD C18 column (100 mm × 2.1 mm, 1.9 μm), which was maintained at 35°C.
The UPLC was interfaced to a Thermo TSQ QUANTIS triple quadrupole mass spectrometer and equipped with an electrospray ionization (ESI) probe working in positive and negative ion exchange scanning mode.
Acetonitrile was used as a precipitation solvent, and protein precipitation was used to handle with the plasma samples. […] Then, the supernatant was dried in a nitrogen environment at 45°C, and the remaining residue was recombined with 100 μL 50% methanol aqueous and vortex for 1 min. Finally, 2 μL supernatant was injected into the UPLC-MS/MS system for analysis.

The mark [1] stands for this setting: plasma, arthritic model rats (complete Freund's adjuvant), oral APR extract 4.1 mL/kg, mean ± SD, n = 6.
Setting [2] is: plasma, normal rats, oral APR extract 4.1 mL/kg, mean ± SD, n = 6.
Setting [3] is: plasma, t 1/2, arthritic model rats (complete Freund's adjuvant), oral APR extract 4.1 mL/kg, mean ± SD, n = 6.
Where [4] appears, read: plasma, t 1/2, normal rats, oral APR extract 4.1 mL/kg, mean ± SD, n = 6.
[5] abbreviates: in vivo, arthritic model rats (complete Freund's adjuvant), oral APR extract 4.1 mL/kg, plasma, mean ± SD, n = 6.
The mark [6] stands for this setting: in vivo, normal rats, oral APR extract 4.1 mL/kg, plasma, mean ± SD, n = 6.
[7] abbreviates: oral APR, concentration-time curve.

In the case of `O=C(C=Cc1ccc(O)c(O)c1)OC1CC(O)(C(=O)O)CC(OC(=O)C=Cc2ccc(O)c(O)c2)C1O` (stereo not drawn) [3,5-diCQA, isochlorogenic acid A], under setting [1], the Cmax was 405 ± 49.2 ng/mL, the MRT last was determined as 18.8 ± 0.49 h and the Tmax was found to be 0.18 ± 0.03 h. Under setting [2], the concentration peaked (Cmax) at 293 ± 47.7 ng/mL, the MRT last was determined as 21.1 ± 0.68 h and the Tmax came out at 0.18 ± 0.03 h. Further, the half-life under setting [3] is 59.5 ± 17.2 h. Under setting [4], the half-life was 33.9 ± 14.3 h. Further, where the note is “model vs normal rats, oral APR”, the “change of AUC0-t in model rats compared with normal rats” value (“change of AUC0-t in model rats” for short) is recorded as “decreased”, the “change of AUC0-∞ in model rats compared with normal rats” value was “increasing”, the “change of Cmax in model rats compared with normal rats” value (“change of Cmax in model rats” for short) is on record as “increasing” and the “change of t1/2 in model rats compared with normal rats” value (from here on “change of t1/2 in model rats”) was “prolonging”.

On to `O=C(/C=C/c1ccc(O)c(O)c1)O[C@@H]1[C@H](O)C[C@@](O)(C(=O)O)C[C@H]1OC(=O)/C=C/c1ccc(O)c(O)c1` [3,4-diCQA, isochlorogenic acid B], for which, under setting [1], the Cmax turned out to be 79.7 ± 7.11 ng/mL, the MRT last was 19.8 ± 0.4 h and the time to peak (Tmax) is 0.29 ± 0.1 h. Besides, under setting [2], the highest level (Cmax) was 85.7 ± 8.14 ng/mL, the MRT last was found to be 21.2 ± 0.73 h and the Tmax was found to be 0.29 ± 0.1 h. Also, under setting [3], the half-life was 84.5 ± 24.3 h. The compound also had a half-life under setting [4] of 58 ± 12 h. Moreover, where the note is “model vs normal rats, oral APR”, the “change of AUC0-t in model rats” value was “decreased”.

As for `COc1c2occc2cc2ccc(=O)oc12` [Xanthotoxin, xanthotoxin], the Cmax was 528 ± 35 ng/mL under setting [5] and 554 ± 76 ng/mL under setting [6]. Moreover, the MRT last by setting is: under setting [5], 10.3 ± 0.51 h; under setting [6], 10.7 ± 0.53 h. The half-life is 14.2 ± 3.76 h (in vivo, t 1/2, arthritic model rats (complete Freund's adjuvant), oral APR extract 4.1 mL/kg, plasma, mean ± SD, n = 6) and 12.1 ± 1.73 h (in vivo, t 1/2, normal rats, oral APR extract 4.1 mL/kg, plasma, mean ± SD, n = 6). In addition, the Tmax was 3.33 ± 1.03 h under setting [5] and 4.33 ± 0.82 h under setting [6].

For the compound `O=C(/C=C/c1ccc(O)c(O)c1)O[C@@H]1C[C@](O)(C(=O)O)C[C@@H](O)[C@H]1O` [Chlorogenic acid, chlorogenic acid], under setting [1], the Cmax turned out to be 2760 ± 264 ng/mL, the MRT last is 8.68 ± 0.52 h and the time of peak concentration (Tmax) was found to be 0.45 ± 0.1 h. For the same compound, under setting [2], the MRT last was determined as 5.95 ± 0.28 h and the Tmax came out at 0.54 ± 0.36 h. Besides, the half-life under setting [3] is 52 ± 13.2 h. This compound showed a half-life under setting [4] of 27.9 ± 14.8 h. Where the note is “model vs normal rats, oral APR”, the “change of AUC0-t in model rats” value is “increased”, the “change of Cmax in model rats” value is “increased”, the “change of MRT in model rats compared with normal rats” value (“change of MRT in model rats” for short) is on record as “longer” and the “change of t1/2 in model rats” value is “longer”. For the same compound, the C max (normal rats, oral APR extract 4.1 mL/kg, plasma, mean ± SD, n = 6) is recorded as 1669.61 ± 25.80 ng/mL.

As to `O=C(/C=C/c1ccc(O)c(O)c1)O[C@H]1[C@H](O)C[C@](O)(C(=O)O)C[C@H]1O` [Cryptochlorogenic acid, cryptochlorogenic acid], under setting [1], the Cmax came out at 189 ± 8.7 ng/mL, the MRT last was 19.5 ± 0.55 h and the Tmax is 0.45 ± 0.1 h. Under setting [2], the Cmax came to 143 ± 4.63 ng/mL, the MRT last turned out to be 18.3 ± 0.46 h and the time to peak (Tmax) amounted to 0.42 ± 0.12 h. The half-life under setting [3] was 48.4 ± 10.5 h. The compound also showed a half-life under setting [4] of 34.5 ± 17.6 h. Besides, for the setting “model vs normal rats, oral APR”, the “change of AUC0-t in model rats” value is listed as “increased”, the “change of Cmax in model rats” value is listed as “increased”, the “change of MRT in model rats” value was “longer” and the “change of t1/2 in model rats” value is given as “longer”.

In the case of `O=c1ccc2cc3ccoc3cc2o1` [Psoralen, psoralen], under setting [1], the Cmax was found to be 327 ± 42.5 ng/mL, the MRT last came to 12.9 ± 0.22 h and the time of peak concentration (Tmax) was determined as 7.66 ± 0.81 h. In addition, under setting [2], the Cmax was 210 ± 27.6 ng/mL, the MRT last worked out at 14.3 ± 0.31 h and the Tmax came to 8 ± 1.26 h. Besides, the half-life under setting [3] was 5.98 ± 0.44 h. Moreover, the half-life under setting [4] was 9.8 ± 3.28 h. For the same compound, under “model vs normal rats, oral APR”, the “change of CL in model rats compared with normal rats” value (from here on “change of CL in model rats”) is listed as “decreased” and the “change of MRT in model rats” value is “shortened”.

Take `CC(C)=CCOc1c2ccoc2cc2oc(=O)ccc12` [Isoimperatorin, isoimperatorin]: the Cmax by setting is: under setting [1], 232 ± 21 ng/mL; under setting [2], 224 ± 26.8 ng/mL. The MRT last reads like this: under setting [1], 15.7 ± 0.65 h; under setting [2], 15.1 ± 0.57 h. Besides, the half-life under setting [3] is 26.8 ± 5.46 h and the half-life under setting [4] is 26.9 ± 8.34 h. The Tmax by setting is: under setting [1], 0.58 ± 0.2 h; under setting [2], 0.58 ± 0.2 h.

Consider `COc1ccc2ccc(=O)oc2c1CC=C(C)C` [Osthol, osthol], for which, under setting [1], the highest concentration (Cmax) came out at 4560 ± 272 ng/mL, the MRT last came to 6.94 ± 0.42 h and the Tmax turned out to be 0.91 ± 0.2 h. Moreover, under setting [2], the highest concentration (Cmax) was determined as 3640 ± 286 ng/mL, the MRT last stood at 6.53 ± 0.29 h and the Tmax came to 1.16 ± 0.4 h. For the same compound, the half-life under setting [3] is 6.42 ± 0.69 h. Under setting [4], this compound had a half-life of 13.4 ± 0.51 h. In addition, under “model vs normal rats, oral APR”, the “change of CL in model rats” value is listed as “decreased”.

As to `COc1c2ccoc2cc2oc(=O)ccc12` [Bergapten, bergapten], under setting [1], the Cmax stood at 518 ± 42.9 ng/mL, the MRT last amounted to 7.11 ± 0.09 h and the time of peak concentration (Tmax) stood at 4.67 ± 1.03 h. Under setting [2], the concentration peaked (Cmax) at 383 ± 95.8 ng/mL, the mean residence time (MRT last) turned out to be 9.4 ± 0.34 h and the time to peak (Tmax) was 3.67 ± 0.82 h. Moreover, the half-life under setting [3] is 7.16 ± 0.41 h. Besides, under setting [4], the half-life is 9.41 ± 2.12 h. Under “model vs normal rats, oral APR”, the “change of CL in model rats” value was “decreased” and the “change of MRT in model rats” value is on record as “shortened”. Further, under setting [7], the “time of first plasma peak after administration of APR” value amounted to 5 min and the “time of second plasma peak after administration of APR” value came out at 4 h.

Take `C/C=C(/C)C(=O)OC(C)(C)[C@@H]1Cc2c(ccc3ccc(=O)oc23)O1` [Columbianadin, columbianadin]: the Cmax under setting [1] was found to be 1500 ± 48.2 ng/mL and the concentration under setting [2] peaked (Cmax) at 1680 ± 222 ng/mL. Moreover, the MRT last is, setting by setting: under setting [1], 11.5 ± 0.87 h; under setting [2], 12.3 ± 0.57 h. For the same compound, the half-life was 16.5 ± 4.83 h under setting [3] and 16.4 ± 3.96 h under setting [4]. Further, the Tmax stood at 0.23 ± 0.03 h under setting [1] and 0.23 ± 0.03 h under setting [2]. The “change of CL in model rats” value (model vs normal rats, oral APR) is given as “decreased”.

`CC(C)(O)[C@@H]1Cc2c(ccc3ccc(=O)oc23)O1` [Columbianetin, columbianetin]: under setting [1], the peak concentration (Cmax) turned out to be 2220 ± 168 ng/mL, the mean residence time MRT last was found to be 12.1 ± 0.2 h and the Tmax is 9 ± 1.09 h. Besides, under setting [2], the Cmax came out at 3120 ± 242 ng/mL, the mean residence time (MRT last) came to 13.3 ± 0.36 h and the time to peak (Tmax) is 9.67 ± 0.82 h. The half-life under setting [3] is 6.07 ± 1.28 h. Moreover, the half-life under setting [4] is 6.04 ± 0.12 h. Also, where the note is “model vs normal rats, oral APR”, the “change of AUC0-t in model rats” value is “decreased”, the “change of AUC0-∞ in model rats compared with normal rats” value was “decreased”, the “change of CL in model rats” value is on record as “increased” and the “change of Cmax in model rats” value is “decreased”. The “change of MRT in model rats” value (model vs normal rats, oral APR) is “shortened”.

For `O=C(C=Cc1ccc(O)c(O)c1)OC1CC(O)(C(=O)O)CC(O)C1O` (stereo not drawn) [Neochlorogenic acid], the Cmax under setting [1] was 531 ± 24.1 ng/mL and the concentration under setting [2] peaked (Cmax) at 420 ± 58.6 ng/mL. In addition, the MRT last was 15.6 ± 0.26 h under setting [1] and 15.6 ± 0.68 h under setting [2]. Besides, the half-life was 31.8 ± 10.2 h under setting [3] and 39.9 ± 16.5 h under setting [4]. Besides, the Tmax was found to be 0.23 ± 0.03 h under setting [1] and 0.2 ± 0.04 h under setting [2]. Besides, for the setting “model vs normal rats, oral APR”, the “change in the pharmacokinetic parameters in normal and model rats” value is “no significant change”.
